Measurements from PMC137065 (Journal of Biology, 2002).
“And” between values parts separate entries of the source, which are not always exact repeats. Identical values can stand only once. Like-named read-outs stand apart in the source and are kept apart here.

Legend:
HA-tagged Smo = HA-tagged Smo (Mus musculus, UniProt P56726); test: whole cell/immunocomplex binding assay, Smo-transfected 293T cells; details: unlabeled competitor at 5 μM, 37°C, 2 hours
[1] = biological target: murine Smo W539L (Smo^act) (Mus musculus, UniProt P56726, W539L); test: filtration membrane-binding assay, Smo^act-containing membranes
murine Smo W539L (Smo^act), sequence (P56726 33-793 W539L): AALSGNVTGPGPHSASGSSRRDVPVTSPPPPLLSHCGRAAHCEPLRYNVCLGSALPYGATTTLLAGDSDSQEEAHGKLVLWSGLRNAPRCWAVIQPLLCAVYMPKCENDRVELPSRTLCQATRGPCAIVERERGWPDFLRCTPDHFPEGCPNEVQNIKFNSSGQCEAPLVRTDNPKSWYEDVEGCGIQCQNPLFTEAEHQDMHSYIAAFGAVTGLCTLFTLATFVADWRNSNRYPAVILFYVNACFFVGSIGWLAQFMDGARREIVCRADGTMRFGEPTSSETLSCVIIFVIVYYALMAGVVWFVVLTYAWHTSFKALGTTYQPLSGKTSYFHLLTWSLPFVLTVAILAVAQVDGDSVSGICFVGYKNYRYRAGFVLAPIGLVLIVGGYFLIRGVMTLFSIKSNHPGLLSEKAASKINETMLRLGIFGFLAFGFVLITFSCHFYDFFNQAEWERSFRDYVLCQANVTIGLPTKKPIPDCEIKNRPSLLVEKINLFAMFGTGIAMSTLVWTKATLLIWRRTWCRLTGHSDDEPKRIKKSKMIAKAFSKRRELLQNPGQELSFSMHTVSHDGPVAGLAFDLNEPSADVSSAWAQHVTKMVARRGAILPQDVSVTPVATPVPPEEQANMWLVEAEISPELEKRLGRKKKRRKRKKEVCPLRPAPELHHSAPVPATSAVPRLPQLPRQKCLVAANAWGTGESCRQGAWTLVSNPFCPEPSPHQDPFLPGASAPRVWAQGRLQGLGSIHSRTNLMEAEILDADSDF

Hh signaling = test: luciferase-based reporter assay of Hh signaling in C3H10T1/2 cells; assay type: cell-based; details: for inhibition of Hh protein-activated versus agonist-activated cells: Hh protein (10 nM) or Hh-Ag 1.2 (200 nM); for effect on pathway activation by the agonist: cells activated by Hh-Ag 1.2 (200 nM)
Smo^act-expressing cells = details: ref [11],[17]; cited from earlier work
murine Smo = murine Smo (Mus musculus, UniProt P56726); test: filtration membrane-binding assay, Smo-containing membranes from 293T cells
murine Smo, sequence (P56726 33-793): as the sequence (P56726 33-793 W539L) above, with L507W counted along it

[2] = Smo^act, competition with [3H]-Hh-Ag 1.5 (0.4 nM)
[3] = Smo^wt, competition with [3H]-Hh-Ag 1.5 (0.4 nM)

HA-tagged Smo, sequence (P56726 33-793): as the sequence (P56726 33-793 W539L) above, with L507W counted along it

## COc1cccc(CN(C(=O)CC(C)(C)C)[C@H]2C[C@@H](C(=O)N3CCNCC3)N(Cc3ccc4c(c3)OCO4)C2)c1 [Cur61414]
HA-tagged Smo
  competition of [3H]-Hh-Ag 1.5 (5 nM) binding: significantly compete
[1]
  Ki on Smo^act- compared to Smo^wt-containing membranes: seven-fold higher
[1]; [2]
  Ki: 309 nM
Hh signaling
  inhibition of Hh protein-activated versus agonist-activated cells: differ in their sensitivity
  effect on pathway activation by the agonist: inhibitory
Smo^act-expressing cells
  potency on Smo^act-expressing cells: decreased potency
Murine Smo; [3]
  Ki: 44 nM
Murine Smo; competitor at 10 μM
  competition of [3H]-Hh-Ag 1.5 (2 nM) binding: significantly compete

## CC1=C2C[C@H]3[C@@H](CC=C4CC(=O)CC[C@@]43C)[C@@H]2CC[C@]12O[C@@H]1C[C@H](C)CN(CCNC(=O)CCCCCNC(=O)CCc3ccccc3)[C@H]1[C@H]2C [KAAD-cyclopamine]
HA-tagged Smo
  competition of [3H]-Hh-Ag 1.5 (5 nM) binding: significantly compete
[1]
  Ki: 38.3 nM
  Ki on Smo^act- compared to Smo^wt-containing membranes: seven-fold higher
Hh signaling
  inhibition of Hh protein-activated versus agonist-activated cells: Identical results
Smo^act-expressing cells
  potency on Smo^act-expressing cells: decreased potency
Murine Smo
  Ki: 5.8 nM
  competition of [3H]-Hh-Ag 1.5 (2 nM) binding: significantly compete

## C=C[C@@]1(C)CC(=O)[C@]2(O)[C@@]3(C)[C@@H](O)CCC(C)(C)[C@@H]3[C@H](O)[C@H](OC(C)=O)[C@@]2(C)O1 [forskolin]
Hh signaling
  inhibition of Hh protein-activated versus agonist-activated cells: identical inhibition curves
  effect on pathway activation by the agonist: inhibitory

## CC1=C2C(=O)[C@H]3[C@@H](CC=C4C[C@@H](O)CC[C@@]43C)[C@@H]2CC[C@]12O[C@@H]1C[C@H](C)CN[C@H]1[C@H]2C [jervine]
Hh signaling
  inhibition of Hh protein-activated versus agonist-activated cells: Identical results

## CNC1CCC(N(Cc2cccc(-c3ccncc3)c2)C(=O)c2sc3c(F)ccc(F)c3c2Cl)CC1 (stereo not shown) [Hh-Ag 1.5]
HA-tagged Smo
  competition of [3H]-Hh-Ag 1.5 (5 nM) binding: complete absence of counts in the immunocomplex
[1]; [2]
  Ki: ~0.5 nM
[1]; kinetic and saturation binding assay, data not shown
  affinity for Smo^act: affinity identical to that of Smo^wt
Hh signaling; cell-based reporter assay
  EC50: ~1 nM and 1 nM
Hh signaling; relative to Hh-Ag 1.1
  increase of potency by chemical modification: over 1000 fold
Murine Smo; [3]
  Ki: 0.52 nM and ~0.5 nM
Murine Smo; saturation binding, approximately 45 hours at 37°C, one-site model
  Kd: 0.37 nM
Murine Smo; unlabeled competitor at 2 μM
  competition of [3H]-Hh-Ag 1.5 (2 nM) binding: completely competed out

## CC1=C2C[C@H]3[C@@H](CC=C4C[C@@H](O)CC[C@@]43C)[C@@H]2CC[C@]12O[C@@H]1C[C@H](C)CN[C@H]1[C@H]2C [cyclopamine]
Hh signaling
  inhibition of Hh protein-activated versus agonist-activated cells: differ in their sensitivity

## C[C@H]1CC[C@]2(NC1)O[C@H]1C[C@H]3[C@@H]4CC[C@H]5C[C@@H](O)CC[C@]5(C)[C@H]4CC[C@]3(C)[C@H]1[C@@H]2C [tomatadine]
Hh signaling; described in words
  Hh signaling activity: inactive
